Results on six compounds are retold here after US20160271251A1, “RADIOLUMINESCENT COMPOUND FOR RADIOTHERAPY AND DEEP PHOTODYNAMIC THERAPY AND DEVICE FOR DEEP PHOTODYNAMIC THERAPY” (SYNCHROTRON SOLEIL, priority 2013, published 2016).

The nature of series [1]: X-ray-excited luminescence (radioluminescence) spectrum. It counts as physicochemical. Particulars: for emission band of X-ray-excited luminescence: c=177 mM. An excerpt: (§1) For the acquisition of these spectra, the two molecules are mixed in the same aqueous solvent. The energy of the X-ray radiation is generally comprised between 1 and 20 keV and selected so as to be higher than an absorption threshold of the radioluminescent molecule, so that the radioluminescent molecule absorbs the X-ray radiation of energy and emits a luminescence radiation in the visible domain.

Series [2] is described as follows: UV-visible absorption spectrum of photosensitiser. It counts as physicochemical.
Text: as §1

On to `[Cl][Ce]([Cl])[Cl]` [CeCl3, cerium chloride], for which the “emission band of X-ray-excited luminescence” value is given as 300-400 nm in series [1] (PBS pH=7.4) and 300-400 nm in series [1] (PEG:EtOH:H2O 3:2:5 v/v, X-ray 1-20 keV).

Turning to `[Cl][Eu]([Cl])[Cl]` [EuCl3, europium chloride], the “most intense of the three peaks observed” value in series [1] (DMSO medium (FIG. 7)) is 700 nm; in series [1] (aqueous medium (FIG. 2)) it was 600 nm.

With `Oc1cccc(-c2c3nc(c(-c4cccc(O)c4)c4ccc([nH]4)c(-c4cccc(O)c4)c4nc(c(-c5cccc(O)c5)c5ccc2[nH]5)CC4)C=C3)c1` [mTHPC, meta-tetrahydroxyphenylchlorine], the “most intense absorption band” value in series [2] (PEG:EtOH:H2O 3:2:5 v/v, c=0.49 μM) is “around 400 nm”.

For the compound `[Al].c1ccc2c(c1)-c1nc-2nc2[nH]c(nc3nc(nc4[nH]c(n1)c1ccccc41)-c1ccccc1-3)c1ccccc21` [Al(III)Phthalocyanine], the “absorption band superimposed with CeCl3 emission” value in series [2] (aqueous medium, c=4 μM) is “around 350 nm”.

As for `[Cl][Gd]([Cl])[Cl]` [GdCl3, gadolinium chloride], the “emission bands/peak of X-ray-excited luminescence” value in series [1] (DMSO medium, EuCl3 c=96 mM, GdCl3 c=199 mM) is “around 320 nm”.

For the compound chlorine e6, the “most intense absorption band” value in series [2] (PBS pH=7.4, c=0.8 μM) was “around 400 nm”.
